In paper PMC10049421, “Anticancer Activity of Sunitinib Analogues in Human Pancreatic Cancer Cell Cultures under Normoxia and Hypoxia” (International Journal of Molecular Sciences, 2023):

What was measured:
PANC-1 cells [1] = tested on: PANC-1 cells; design: method as in PMID 15202007; conditions: 10 μM; cited from earlier work
PANC-1 cells [2] = conditions: cited from earlier work
MIA PaCa-2 cell line [3] = tested on: MIA PaCa-2 cell line; design: method as in PMID 30341797; conditions: MIA PaCa-2, 5 μM; cited from earlier work
PANC-1 cell monolayer = conditions: PANC-1, 1 μM, cited from earlier work
MIA PaCa-2 cell line [4] = tested on: MIA PaCa-2 cell line; design: method as in PMID 26176887; conditions: MIA PaCa-2, 1 μM, 24 h and 48 h; cited from earlier work
MIA PaCa-2 cells [5] = test: MTT cell viability assay, MIA PaCa-2; assay type: cell-based, human; conditions: for EC50: Homo sapiens, MIA PaCa-2, 72 h, 72 h, MTT
Method: (§1) Cell viability was tested using MTT (3-(4,5-dimethylthiazol-2-yl)-2,5-diphenyltetrazolium bromide; Sigma-Aldrich Co.) assay, as described previously Briefly, MIA PaCa-2 and PANC-1 cells were seeded in 96-well plates (Corning, NY, USA) in a volume of 100 μL (4000 cells/well). After 24 h incubation, the cells were treated with sunitinib and its derivatives. Only the medium without cells was used as a positive control, and the medium with 0.5% DMSO (Sigma-Aldrich Co.) served as a negative control. After 72 h the cells were incubated with the 0.5 mg/mL of MTT solution for the next 4 h. The coloured formazan product was dissolved in 100 μL DMSO. The absorbance was measured spectrophotometrically at wavelengths 570 and 630 nm. […] When determining the EC50 values of the compounds under hypoxic conditions, the growth medium was supplemented with 100 µM of CoCl2 solution (97%, Alfa Aesar, MA, USA).

PANC-1 cells [6] = test: MTT cell viability assay, PANC-1; assay type: cell-based, human; conditions: for EC50: Homo sapiens, PANC-1, 72 h, 72 h, MTT
Method: as §1

human fibroblasts = test: MTT cell viability, human fibroblasts (selectivity); assay type: cell-based; conditions: MIA PaCa-2 and PANC-1 vs fibroblasts
[7] = tested on: MIA PaCa-2 and PANC-1 cells; test: MTT cell viability, both pancreatic cancer cell lines; assay type: cell-based, human; conditions: for activity on cell viability, comparison between cell lines: EC50 comparison MIA PaCa-2 vs PANC-1
Method: as §1

MIA PaCa-2 cells [8] = test: Clonogenic assay, MIA PaCa-2; assay type: cell-based, human; conditions: for MIA PaCa-2 cell colony formation: 90% of EC50, normoxia; for number and area of colonies: MIA PaCa-2, higher concentration (90% of EC50), normoxia and hypoxia
Method: (§2) Compound effect on cell colony formation and growth was established by clonogenic assay, as previously published. […] Cells were incubated in a humidified atmosphere containing 5% CO2 at 37 °C and grown for 8 days. After incubation, the cells were rinsed with PBS and fixed with 10% formaldehyde, methanol-free (ThermoFisher Scientific, Waltham, MA, USA) solution for 20 min. Then the cells were rinsed with PBS two more times, and cell colonies were stained with 0.1% aqueous crystal violet solution (Sigma-Aldrich Co.) for 20 min, followed by rinses with sterile deionized water to remove the excess dye. Photos of colonies were taken using the G:BOX gel documentation system (Syngene International Ltd., Bengaluru, India) and Genesys software (Syngene International Ltd.). The number of colonies and their area were calculated using GeneTools colony and cell counting software (Syngene International Ltd.) according to the manufacturer’s instructions. Cell colony area and number in control groups were normalized to 100%. The percentage of drug-treated colony area and number were compared to the control.

PANC-1 cells [9] = test: Clonogenic assay, PANC-1; assay type: cell-based, human; conditions: for number and area of colonies: PANC-1, higher concentration (90% of EC50), normoxia and hypoxia
Method: as §2

MIA PaCa-2 cells [10] = test: 'Wound healing' migration assay, MIA PaCa-2; assay type: cell-based, human; conditions: for inhibition of migration, hypoxia compared with normoxia: MIA PaCa-2
Method: (§3) Cell migration was tested by the ‘wound’ healing assay, as described elsewhere. Briefly, MIA PaCa-2 and PANC-1 cells were seeded into 24-well plates (Corning). MIA PaCa-2 at a density of 80,000 cells/well and PANC-1 at a density of 60,000 cells/well in 500 μL of medium and incubated in a humidified atmosphere containing 5% CO2 at 37 °C for 1 day. Then the monolayers were scratched with a sterile 100 μL pipette plastic tip in the centre of the well. The old cell medium is aspirated, the wells are rinsed with 400 μL phosphate-buffered saline (PBS, Gibco). […] Photos of ‘wounds’ were taken every 24 h for 3 days and the compound effect was evaluated by measuring the size of the “wound” area. Images were analysed by TScratch software (CSE Lab, Zurich, Switzerland).

PANC-1 cells [11] = test: 'Wound healing' migration assay, PANC-1; assay type: cell-based, human; conditions: for inhibition of migration, hypoxia compared with normoxia: PANC-1; for 'wound' area compared to the control: PANC-1, 0.35 μM
Method: as §3

BxPC-3 cell line = conditions: BxPC-3, concentration-dependent; cited from earlier work
Capan-2 cell line = conditions: Capan-2, concentration-dependent; cited from earlier work
[12] = MIA PaCa-2, hypoxia (100 µM CoCl2)

## COc1cc2ncnc(Nc3ccc(F)c(Cl)c3)c2cc1OCCCN1CCOCC1 [Gefitinib]
PANC-1 cells [1]
  reduction of viability of PANC-1 cells: 78%

## Cc1nc(Nc2ncc(C(=O)Nc3c(C)cccc3Cl)s2)cc(N2CCN(CCO)CC2)n1 [Dasatinib]
PANC-1 cells [2]; 10 μM
  number of PANC-1 cell colonies: significantly reduced

## Nc1ccn([C@@H]2O[C@H](CO)[C@@H](O)C2(F)F)c(=O)n1 [gemcitabine]
PANC-1 cells [2]; PANC-1, 5 μM
  colony formation: statistically significantly reduced
MIA PaCa-2 cell line [3]
  colony formation: statistically significantly reduced
PANC-1 cell monolayer; 24 h and 48 h
  'wounds' compared to the control: did not show a significant difference
MIA PaCa-2 cell line [4]
  'wounds' compared to the control: did not show a significant difference

## COc1ccc(C2CC(c3ccc4ccccc4c3)=NN2C2=NC(=O)/C(=C3/C(=O)Nc4ccc(Cl)cc43)S2)cc1 (stereo not shown) [EMAC4001]
MIA PaCa-2 cells [5]; [12]
  EC50: 0.1 ± 0.013 µM
MIA PaCa-2 cells [5]; MIA PaCa-2, normoxia
  EC50: 0.113 ± 0.008 µM
  times more active than sunitinib: 24 times
MIA PaCa-2 cells [5]; MIA PaCa-2, hypoxia
  times more active than sunitinib: 35 times
PANC-1 cells [6]; PANC-1, hypoxia (100 µM CoCl2)
  EC50: 0.08 ± 0.005 µM
PANC-1 cells [6]; PANC-1, normoxia
  EC50: 0.098 ± 0.003 µM
  times more active than sunitinib: 36 times
PANC-1 cells [6]; PANC-1, hypoxia
  times more active than sunitinib: 47 times
Human fibroblasts
  selectivity towards cancer cells compared to human fibroblasts: most selective compound
[7]; 1 µM, 72 h, both cancer cell lines
  reduction of viability compared to sunitinib: statistically significantly stronger reduced
[7]; 1 µM, 72 h of incubation, at least one cell line
  reduction of cell viability: 90%
[7]
  activity on cell viability, comparison between cell lines: more active in the PANC-1 cell line
MIA PaCa-2 cells [8]
  MIA PaCa-2 cell colony growth, hypoxia compared with normoxia: stronger effect on the MIA PaCa-2 cell colony growth under hypoxia than normoxia
  MIA PaCa-2 cell colony formation: statistically significantly inhibited
  number and area of colonies: significantly reduced the number and area of colonies
MIA PaCa-2 cells [8]; MIA PaCa-2, 90% of EC50, normoxia and hypoxia
  number and size of cell colonies compared to sunitinib: less of MIA PaCa-2 and PANC-1 cell colonies and they were smaller
PANC-1 cells [9]; 90% of EC50, normoxia
  PANC-1 cell colony formation (number) compared to the control: inhibited the colony formation of PANC-1 cells
PANC-1 cells [9]; PANC-1, 90% of EC50, normoxia and hypoxia
  number and size of cell colonies compared to sunitinib: less of MIA PaCa-2 and PANC-1 cell colonies and they were smaller
PANC-1 cells [9]
  number and area of colonies: significantly reduced the number and area of colonies
MIA PaCa-2 cells [10]
  inhibition of migration, hypoxia compared with normoxia: more than in normoxia
MIA PaCa-2 cells [10]; normoxia, higher concentrations (90% of EC50)
  cell migration: inhibited cell migration
PANC-1 cells [11]
  inhibition of migration, hypoxia compared with normoxia: the effect was the opposite

## CN(C)C/C=C/C(=O)Nc1cc2c(Nc3ccc(F)c(Cl)c3)ncnc2cc1O[C@H]1CCOC1 [Afatinib]
PANC-1 cells [2]; PANC-1, 0.25 to 2 μM
  cell colony formation: did not show an effect
BxPC-3 cell line
  cell colony formation: inhibited cell colony formation
Capan-2 cell line
  cell colony formation: inhibited cell colony formation

## CCN(CC)CCNC(=O)c1c(C)[nH]c(/C=C2\C(=O)Nc3ccc(F)cc32)c1C [sunitinib, Sunitinib malate]
MIA PaCa-2 cells [5]; [12]
  EC50: 3.5 ± 0.3 µM
MIA PaCa-2 cells [5]; MIA PaCa-2, normoxia
  EC50: 2.67 ± 0.21 µM
PANC-1 cells [6]; 3.5 μM
  decrease of PANC-1 cell viability: up to 50%
PANC-1 cells [6]; PANC-1, hypoxia (100 µM CoCl2)
  EC50: 3.73 ± 0.21 µM
PANC-1 cells [6]; PANC-1, normoxia
  EC50: 3.53 ± 0.21 µM
[7]; EC50 comparison
  activity on cell viability, hypoxia compared with normoxia: more active under normoxia than hypoxia conditions
[7]
  activity on cell viability, comparison between cell lines: inhibited more efficiently the cell viability of the MIA PaCa-2 cell line
MIA PaCa-2 cells [8]
  MIA PaCa-2 cell colony formation: statistically significantly inhibited
  number and area of colonies: significantly reduced the number and area of colonies
PANC-1 cells [9]
  number and area of colonies: significantly reduced the number and area of colonies
MIA PaCa-2 cells [10]
  inhibition of migration, hypoxia compared with normoxia: more under hypoxic conditions
MIA PaCa-2 cells [10]; MIA PaCa-2, 10 and 90% of EC50, normoxia and hypoxia (except lower concentration under normoxia)
  cell migration: statistically significantly inhibited cell migration
PANC-1 cells [11]
  inhibition of migration, hypoxia compared with normoxia: more under hypoxic conditions
PANC-1 cells [11]; 24 h
  'wound' area compared to the control: no difference
PANC-1 cells [11]; 48 h and 72 h
  'wound' area compared to the control: significantly larger
PANC-1 cells [11]; PANC-1, 10 and 90% of EC50, normoxia and hypoxia
  cell migration: statistically significantly inhibited cell migration
PANC-1 cells [11]; PANC-1 monolayer, hypoxia, after 72 h
  'wound' area: 68.81 ± 5.24%
PANC-1 cell monolayer; 24 h
  change in 'wound' area compared to the control: did not establish a significant difference
